Earlier results on one substance are cited in patent US12708515B2, “Valved devices, treatments and methods to restore tissue elastic recoil” (priority 2021, dated 2026).

The test system of data set [1] is E. coli and E. faecalis. The note with it: physiologically relevant conditions.
The subject of data set [2] is E. coli. The conditions noted are these: cysteine terminated peptide; second value of the pair.

For LasioglossinIII, the “antimicrobial activity of coated catheters” value in data set [1] is reported as “potent antimicrobial activity”. Besides, in data set [2], the anti-biofilm is 40% (anti-biofilm).
